Measured values reported in patent publication US5534542A, “Methods and materials relating to a bi-metallic cross-linking species” (priority 1994, dated 1996).
Entries after “also recorded” stand apart in the source; their conditions may differ.

How the values were obtained:
[1] = system: radiolabelled DNA fragment; experiment: DNA-binding assay: electrophoretic mobility shift of a radiolabelled DNA fragment on polyacrylamide gel; conditions: for DNA mobility shift with increasing concentrations: polyacrylamide gel electrophoresis of radiolabelled DNA fragment
From the text: The assay used to determine the DNA-binding activity of the complexes is based on the assays developed by Lippard and coworkers for assaying the extent of DNA binding by cis-DDP, in which the electrophoretic mobility of a DNA molecule is altered by binding of the drug (Sundquist, 1990). Charge neutralization and DNA bending caused by binding of the divalent metal complex have been invoked to explain the observed mobility shift.

[2] = cited from earlier work
Fur = molecular target: T1, Fur (Escherichia coli, UniProt P0A9A9); experiment: In vitro DNA-protein crosslinking assay (gel mobility shift), Fur; type: biochemical; conditions: Fur and DNA fragment bearing its recognition sequence
T1 construct: made in house
From the text: (§1) (Pried & Crothers, 1981; Garner & Revsin, 1981).
(§2) Proteins and DNA Probes. TFIIIA from Xenopus Borealis was provided by T. Tullius (Johns Hopkins University) and A. Wolffe (NIH). Fur was purified based on the method of Neilands and coworkers. MerR extract was obtained and quantified as described (O'Halloran, 1989). DNA probes used in TFIIIA, Fur, and MerR gel mobility shift assays were derived from plasmids pXBS201 (obtained from T. Tullius), pGMer and pBIB, respectively. The 249-bp BamHI-HindIII fragment from pXBS201, 309-bp XhoI-PvuII fragment from pBIB and 411-bp BssHII-BssHII fragment from pGMer are labeled with [α-^32 P]dNTPs (Amersham) by the Klenow fragment of DNA polymerase (Bethesda Research Laboratories). The labeled fragments are then isolated and purified by gel electrophoresis. DNA concentrations were determined by optical density at 260 nm by using a molar extinction coefficient of 1.3×10^4 per nucleotide pair.
(§3) Crosslinking Activity Assay. DNA-protein-crosslinker are incubated in 20 μl (final volume) of binding buffer. The buffer for TFIIIA and MerR extract reaction is 20 mM Hepes [pH 7.5], 50 mM K2 SO4, 10 μMZnsO4, 3 mM MgCl2, 10% glycerol and 70 μg/ml Albumin, Bovine-carboxymethyl [c-BSA] (Sigma). The Fur incubation buffer is 20 mM Bis-Tris/Borate [pH 7.0], 50 mM K2 SO4, 5% glycerol, 1 mM MgCl2, 5 μG/ml salmon sperm DNA and 100 μg/ml c-BSA. […]

TFIIIA = molecular target: T2, TFIIIA (Xenopus borealis, UniProt P17842); experiment: In vitro DNA-protein crosslinking assay (gel mobility shift), TFIIIA; type: biochemical; conditions: zinc finger transcription factor TFIIIA and DNA fragment bearing its recognition sequence
T2 sequence (P17842 1-339): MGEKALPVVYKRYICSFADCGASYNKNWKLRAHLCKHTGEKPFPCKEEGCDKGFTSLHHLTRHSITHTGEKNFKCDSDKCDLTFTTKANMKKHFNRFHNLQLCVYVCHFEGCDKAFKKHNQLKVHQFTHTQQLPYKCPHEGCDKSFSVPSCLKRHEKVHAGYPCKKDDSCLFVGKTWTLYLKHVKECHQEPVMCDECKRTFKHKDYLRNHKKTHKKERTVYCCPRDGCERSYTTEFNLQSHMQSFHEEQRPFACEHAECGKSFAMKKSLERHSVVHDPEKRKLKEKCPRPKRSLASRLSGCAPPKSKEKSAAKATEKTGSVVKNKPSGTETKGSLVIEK
From the text: as §1, §2, §3

MerR protein = molecular target: T3, MerR protein (Pseudomonas aeruginosa, UniProt P0A183); experiment: In vitro DNA-protein crosslinking assay (gel mobility shift), MerR; type: biochemical; conditions: MerR and DNA fragment bearing its recognition sequence
T3 construct: made in house
Description: FIGS. 8-11: In vitro assay for crosslinking of proteins to DNA by 5-Chloromercuri-1,2-pentanediamine)dichloro platinum(II). Lane 1:4.5 pM DNA, 500 cpm Lane 2: DNA+460 pM MerR dimer Lane 3: DNA+protein+2.4 nM unlabeled competitor DNA Lane 4: DNA+protein+25 mM KCN Lane 5:DNA-protein complex treated with 10 mM 1 prior to competition. Lane 6: DNA-protein complex treated with 2 mM 1 prior to competition. Lane 7: DNA-protein complex treated with 0.4 mM crosslinker prior to competition Lanes 8-10: Reactions as for lane 5-7, pretreated with 25 mM KCN prior to competition. (Grant)
as §1
Proteins and DNA Probes. TFIIIA from Xenopus Borealis was provided by T. Tullius (Johns Hopkins University) and A. Wolffe (NIH). Fur was purified based on the method of Neilands and coworkers. MerR extract was obtained and quantified as described (O'Halloran, 1989). DNA probes used in TFIIIA, Fur, and MerR gel mobility shift assays were derived from plasmids pXBS201 (obtained from T. Tullius), pGMer and pBIB, respectively. […] DNA concentrations were determined by optical density at 260 nm by using a molar extinction coefficient of 1.3×10^4 per nucleotide pair. […]

[3] = Kinetics of the reaction of the complex with DMSO (UV spectroscopy); type: physicochemical; conditions: room temperature; in accord with published rate data for cis-Pt(NH3)2Cl2
Description: ^1 H, ^13 C, ^195 Pt and ^199 Hg NMR spectra were recorded on a Varian VXR-400 Fourier Transform spectrometer, operating at 399.95 MHZ (^1 H), […] (^13 C), 85.736 MHz (^195 Pt), and 71.600 MHz (^199 Hg). Standard acquisition parameter files were used for the accumulation of ^1 H and ^13 C spectra. For ^195 Pt NMR, a spectral window of 50 KHz was used, with a pulse width of 30 μsec, and a pulse delay of 100 μsec. Broadband proton decoupling was employed during acquisition of the spectra. ^195 Pt spectra were referenced externally using a 0.1M aqueous solution of K2 PtCl4 in 0.1M KCl. Chemical shifts are reported relative to K2 PtCl6 =0 ppm. (δK2 PtCl4 =[…]). Proton-decoupled ^199 Hg NMR spectra were recorded using a spectral window of 30 KHz, a pulse width of 30 μsec, and a pulse delay of 100 μsec. Chemical shifts are reported relative to external Hg(CH3)2 (0 ppm). Mass spectra were recorded using a VG instruments VG70-250 S/SE instrument. Infrared spectra were recorded using either a Perkin-Elmer PE-283 or a Mattson Alpha Centauri FTIR spectrometer. UV spectra were obtained using a Hewlett-Packard HP8452 spectrophotometer running off of an IBM-AT personal computer. Kinetic measurements were controlled using the Hewlett-Packard Multicell Kinetics Module. Data manipulation and plotting was performed using the program Igor^24 running on a Macintosh IIx personal computer. […]

[4] = Solubility of the cross-linker complex in solvents; type: physicochemical
From the text: The cross-linker species of the present invention has been characterized by a combination of analytical and spectroscopic techniques. […] The complex is quite soluble in DMSO, although a warning has been issued concerning the compositions of DMSO solutions of cisplatin derivatives (Sundquist, 1987). The proton NMR spectrum of the complex in d7-DMF is poorly resolved, and the resonances due to the residual protons in the deuterated solvent tend to obscure parts of the spectrum of the complex.
This appears to be an effect of particle size on dissolution rate, since no differences can be discerned in the infrared spectra of the complex before or after this treatment. In particular there is no evidence for coordinated DMSO in the region 1000-1200 cm-^1.

Stability at low pH = type: physicochemical

T3 sequence (P0A183 whole entry, the tested form may be a part): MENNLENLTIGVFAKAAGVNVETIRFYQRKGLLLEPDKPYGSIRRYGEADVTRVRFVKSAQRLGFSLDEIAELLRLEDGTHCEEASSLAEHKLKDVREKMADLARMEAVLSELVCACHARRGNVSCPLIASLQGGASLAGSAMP
T1 sequence (P0A9A9 2-148): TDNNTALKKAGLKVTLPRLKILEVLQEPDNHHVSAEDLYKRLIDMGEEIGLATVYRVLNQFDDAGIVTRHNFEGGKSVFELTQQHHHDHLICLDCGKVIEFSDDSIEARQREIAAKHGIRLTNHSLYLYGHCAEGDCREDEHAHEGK

| Compound | DNA mobility shift with increasing concentrations [1] | toxicity in phase I trials [2] | induction of DNA-protein cross-links, Fur (Fur) | binding to DNA [1] | induction of DNA-protein cross-links, TFIIIA (TFIIIA) | induction of DNA-protein cross-links, MerR (MerR protein) | also measured |
| --- | --- | --- | --- | --- | --- | --- | --- |
| NCCN.[Cl][Pt][Cl] [PtenCl2] | saturation binding curve |  |  |  |  |  |  |
| O=C([O-])C1(C(=O)[O-])CCC1.[NH-]CC(C[NH-])(CO)CO.[Pt+4] [zeniplatin] |  | caused nephrotoxicity |  |  |  |  |  |
| N.N.[Cl][Pt][Cl] [cisplatin, cis-dicholorodiammineplatinum(II), reference compound] |  |  | only the latter reagent can efficiently induce DNA-protein cross-links | bind avidly to DNA | only the latter reagent can efficiently induce DNA-protein cross-links | only the latter reagent can efficiently induce DNA-protein cross-links |  |
| 5-Chloromercuri-1,2-pentanediamine)dichloro platinum(II) [Merplatin] | saturation binding curve which is identical in form with a curve obtained by incubation of DNA with PtenCl2 |  | can efficiently induce DNA-protein cross-links | bind avidly to DNA | can efficiently induce DNA-protein cross-links | can efficiently induce DNA-protein cross-links | half-life of reaction with DMSO [3]: approximately 3 hours; solubility in DMSO ([4]; DMSO): quite soluble; solubility in NMP after reprecipitation ([4]; NMP, after dissolution in DMSO and immediate precipitation with ethanol): readily soluble; solubility in amide solvents ([4]; dimethylformamide or 1-methylpyrrolidinone (NMP), complex as prepared in Example 1): limited solubility; also recorded: dissolves sparingly; concentration of solutions that can be prepared in amide solvents ([4]; dimethylformamide or NMP, complex as prepared in Example 1): ~ 10 mM; solubility in water and most organic solvents ([4]; water and most organic solvents, listed as complex): limited solubility; also recorded: low solubility; stability at low pH (Stability at low pH): stable at low pH |
| NCC1(CN)CCOCC1.O=C([O-])C1(C(=O)[O-])CCC1.[Pt+2] [enloplatin] |  | caused nephrotoxicity |  |  |  |  |  |
| [CH3][Hg][Cl] [MeHgCl] | does not exhibit a mobility shift at all |  |  |  |  |  |  |
